Key:
HT-22 cells [1] = assay: HT-22 cell viability during H2O2 exposure (calcein AM assay); type: cell-based, mouse; settings: for pre-incubation required to achieve significant neuroprotection from H2O2 toxicity / protection against H2O2: HT-22; for concentrations toxic to HT-22 cells: HT-22, H2O2 experiments; for protection against H2O2: 24 h pretreatment, 30 μM H2O2; for protection when given after the H2O2 insult: post-treatment
Protocol: HT-22 cultures were incubated with different concentrations of the three compounds for 24 hours prior to the insult. […] Peak neuroprotective concentrations for 15d-PGJ2 ranged from […]. […] Additionally, we determined the effects of 15d-PGJ2 and troglitazone on HT-22 cells protection against another type of pro-oxidant insult, hydrogen peroxide H2O2. […] Higher concentrations (>10 μM and >20 μM) of 15 dPGJ2 and troglitazone, respectively, were toxic to HT-22 cells. […] HT-22 cells were pre-treated with 15d-PGJ2 for 24 hours. Thirty micromolar of H2O2 was then administered, and cell viability was determined 24 hours later. The cell viability is expressed as a % survival of the control (non-peroxide treated) cultures. DMSO received the vehicle only for 15d-PGJ2. Shown in FIG. 23 are the mean±SEM for n>6 cultures/group. The asterisk (“*”) indicates p<0.05 versus respective control.
(§1) The WY-14643, Ciglitazone, Troglitazone, 9-cis retinoic acid, and 15d-PGJ2 compounds were purchased from Biomol (Plymouth Meeting, Pa.). L-165041 and L-783483 were kindly provided by Merck Laboratories. The cell lines used were HT-22, an immortalized mouse hippocampal cell line, and SK—N—SH, a human neuroblastoma cell line. The HT-22 cells were obtained from David Schubert (Salk Institute, San Diego, Calif.). The HT-22 line was originally selected from HT-4 cells based on glutamate sensitivity. HT-4 cells were immortalized from primary hippocampal neurons using a temperature-sensitive SV-40 T antigen (Morimoto and Koshland, 1990). SK—N—SH were obtained from ATCC (Manassas, Va.). HT-22 and SK—N—SH cells were grown to confluence in DMEM and RPMI-1640 media, respectively, and supplemented with 10% charcoal/dextran-treated fetal bovine serum (FBS), and 5 mg/ml gentamycin at 37° C. under 95% air, 5% CO2. HT-22 cells were plated at a density of 50,000 cells/ml (5,000 cells/well), and SK—N—SH were plated at a density of 120,000 to 150,000 cells/ml (12,000 to 15,000 cells/well) in 96-well plates. In most studies, wells were pre-treated with PPAR ligands over a wide dose range at various times prior to being subjected to either glutamate, hydrogen peroxide (H2O2), or serum deprivation insults. In some studies, the insults were applied prior to the addition of the PPAR ligand.
(§2) The cell viability assays were conducted about 14 to 24 hours post-insult time, viability of cells was determined using 2.5 μM Calcein AM assay in phosphate-buffered saline (PBS). After 25 minutes of incubation, live cells were distinguished by the presence of intracellular esterase activity, which cleaves the calcein AM dye, producing a bright green fluorescence. Viability was measured in Relative Fluorescent Units (“RFU”), and expressed as percentage of vehicle-treated control values. The calcein assay was designed to produce results that accurately reflect viable cell numbers. At cell concentrations below 10,000 cells per well (96-well plate) a linear relationship between RFU and cell number is achieved (r^2=0.9997, data not shown).

HT-22 cells [2] = assay: HT-22 serum deprivation toxicity; type: cell-based, mouse; settings: for protection against serum deprivation: 24 h in 10% FBS with compound, then about 12 h serum free medium; for concentration enhancing serum deprivation-induced toxicity: HT-22
Protocol: The effects of pretreatment of HT-22 cells with PPARγ agonists on serum deprivation toxicity were also studied. We examined whether 15d-PGJ2 or troglitazone have neuroprotective activity against serum deprivation toxicity. HT-22 cells were incubated for 24 hours in 10% FBS medium containing either 15d-PGJ2 or troglitazone. Then, cells were exposed for about 12 hours to a serum free medium with both of the compounds present. […] In addition, 15d-PGJ2 and troglitazone enhanced the serum deprivation-induced toxicity at or above 10 μM and 20 μM, respectively.
as §1, §2

Structure (SMILES)	pre-incubation required to achieve significant neuroprotection from H2O2 toxicity (HT-22 cells [1]) [h]	concentrations toxic to HT-22 cells (HT-22 cells [1])	protection against H2O2 (HT-22 cells [1])	protection when given after the H2O2 insult (HT-22 cells [1])	protection against serum deprivation (HT-22 cells [2])	concentration enhancing serum deprivation-induced toxicity (HT-22 cells [2]) [µM]
CCCCC/C=C/C=C1/C(=O)C=C[C@@H]1C/C=C\CCCC(=O)O [15d-PGJ2, 15-deoxy-Δ^12,14-PGJ2]	4	above 10 μM	dose-dependent protection	Neither 15dPGJ2 nor troglitazone protected	failed to protect	≥ 10
Cc1c(C)c2c(c(C)c1O)CCC(C)(COc1ccc(CC3SC(=O)NC3=O)cc1)O2 (stereo not drawn) [troglitazone]	4	> 20 µM	dose-dependent protection	Neither 15dPGJ2 nor troglitazone protected	failed to protect	≥ 20
